Experimental data: patent US9796717B2, “Tricyclic heterocycles as anticancer agents” (ICAHN SCHOOL OF MEDICINE AT MOUNT SINAI, priority 2013, dated 2017)
Read-outs that look alike come from different tables or passages of the source.

Legend:
H1650 lung cancer cells [1] = system: H1650 lung cancer cells; set-up: % @ 20 μM: scale not given here; conditions: cited from earlier work; for IC50: examples up to number 80 taken from PCT WO2013/025882, read-out: IC50 (μM), Cell Viability Data
[2] = system: BALB/c hearts transplanted into fully allogeneic B6 recipients; test: Heart allograft survival; type: in vivo, mice; conditions: 100 mg/kg i.p.; n=4; untreated rejected by day 8; p<0.05 vs control
Protocol: To test for a clinically relevant in vivo effect, BALB/c hearts were transplanted into fully allogeneic B6 recipients. While untreated animals rejected their grafts by day 8 n=4, the grafts in the mice treated with 100 mg/kg i.p. of Example 30 lasted 18 days n=4, p<0.05 vs control, a statistically and clinically significant effect.

EGFR-L858R/CCSP mice = test: In vivo lung cancer model (MRI tumor volume); conditions: 100 mg/kg i.p. every other day for two weeks; DMSO control 20% increase
Protocol: The in vivo lung cancer model is described in Politi et al., Genes Dev. Jun. 1, 2006 20: 1496-1510. EGFR-L858R/CCSP mice were fed doxycycline-impregnanted food pellets to induce tumor formation. After 8-12 weeks, mice were imaged in a Bruker 4.7T Biospec scanner to confirm lung nodule development. After tumor confirmation, the compound of Example 30 was prepared in DMSO (Sigma) and administered i.p. at 100 mg/kg every other day for two weeks. After treatment, the mice were re-imaged by MRI, and pre-treatment and post-treatment lung volumes were calculated by visible lung opacity present in each axial image using Osirix 4.1.1. DMSO control animals show a 20% increase in tumor volume over two week treatment period. Animals treated with the compound of Example 30 show a 60% decrease in tumor volume over two week treatment period.

H1650 lung cancer cells [3] = test: Cell viability assay (MTT, IC50 determination); type: cell-based; conditions: Homo sapiens, NCI-H1650, 48 h after drug treatment, examples 100-103
Protocol: Cell Viability Assays (IC50 Determination)
Cell viability assays were performed according to Denizot, F. and R. Lang, Journal of Immunological Methods, 1986. 89(22): p. 271-277. H1650 lung cancer cells were plated at 150,000 cells per well in a 12 well plate. Twenty-four hours after plating, cells were treated as described with increasing concentrations of drug and control. Forty-eight hours after drug treatment, cells were treated with 100 μL of 3-(4,5-Dimethylthiazol-2-yl)-2,5-diphenyltetrazolium bromide (MTT) and incubated for 2 hours at 37 C. The MTT solution was subsequently replaced with 300 μl of n-propyl alcohol and re-aliquoted to a 96 well plates. Spectrophotometric analysis of each solution was performed using a 96 well plate reader at 600 nm in triplicate. The examples up to number 80 in Table 1 below are taken from PCT WO2013/025882, published 21 Feb. 2013. They illustrate biological activities of compounds that share a tricyclic scaffold.

CD4 naïve cells = test: Induction of Treg (Foxp3+) from naïve CD4 T cells; type: cell-based; conditions: control compounds, concentration not given; 3 days
Protocol: Example 30 has been tested for its ability to induce Treg from naïve CD4 T cells. […] Fifty thousand CD4 naïve cells (CD62Lhi,CD25 low, CD4 positive) were incubated with 2 ng/mL TGFβ, 1 ug/mL anti-CD3, 100 ng/mL IL-2, 50000 APCs per well and the compounds 10 μM, 5 μM and 2.5 μM concentrations. The cells were incubated for 3 days and then stained for CD4 and Foxp3 expression. Results were expressed as fold increase over the % induced in control (DMSO) wells (typically 20-25% Foxp3+). AKTi, a small molecule AKT inhibitor, was used as a positive control; it induced about a 4-fold increase. […] The effects of Example 30 on iTreg induction are amplified as the TGFβ concentration decreases.

| SMILES | IC50 (H1650 lung cancer cells [1]; MTT, 48 h after drug treatment) [µM] | IC50 (H1650 lung cancer cells [3]) [µM] | also measured |
| --- | --- | --- | --- |
| O=S(=O)(N[C@H]1CCC[C@@H](N2c3ccccc3CCc3ccccc32)C1)c1ccc(OC(F)(F)F)cc1 (relative stereo) [Example 73 cis, cis-N-(3-(10,11-dihydro-5H-dibenzo[b,f]azepin-5-yl)cyclohexyl)-4-(trifluoromethoxy)benzenesulfonamide] | 5 | – | – |
| O=S(=O)(N[C@H]1CCC[C@H](N2c3ccccc3CCc3ccccc32)C1)c1ccc(OC(F)(F)F)cc1 (relative stereo) [Example 73 trans, trans-N-(3-(10,11-dihydro-5H-dibenzo[b,f]azepin-5-yl)cyclohexyl)-4-(trifluoromethoxy)benzenesulfonamide] | 15 | – | – |
| O=S(=O)(NCCCN1c2ccccc2CCc2ccc(Cl)cc21)c1cc(F)cc(F)c1 [Example 13, N-(3-(3-chloro-10,11-dihydro-5H-dibenzo[b,f]azepin-5-yl)propyl)-3,5-difluorobenzenesulfonamide] | 18 | – | – |
| Cc1ccc(S(=O)(=O)NCCN2c3ccccc3Sc3ccc(Cl)cc32)cc1 [Example 18, N-(2-(2-chloro-10H-phenothiazin-10-yl)pethyl)4-methylbenzenesulfonamide] | 24.4 | – | – |
| O=S(=O)(NCCCN1c2ccccc2CCc2ccc(Cl)cc21)c1ccc(Cl)cc1F [Example 28, N-(3-(3-chloro-10,11-dihydro-5H-dibenzo[b,f]azepin-5-yl)propyl)-4-chloro-2-fluorobenzenesulfonamide] | – | – | IC50 (μM), Cell Viability Data (H1650 lung cancer cells [1]; MTT, 48 h after drug treatment, examples up to number 80 taken from PCT WO2013/025882): INACTIVE |
| O=S(=O)(NCCCN1c2ccccc2CCc2ccc(Cl)cc21)c1ccc(OC(F)(F)F)cc1 [Example 30, N-(3-(3-chloro-10,11-dihydro-5H-dibenzo[b,f]azepin-5-yl)propyl)-4-(trifluoromethoxy)benzenesulfonamide] | – | – | graft survival [2]: 18 days; decrease in tumor volume over two week treatment period (EGFR-L858R/CCSP mice): 60% |
| O=S(=O)(NCCC=C1c2ccccc2Sc2ccccc21)c1ccc(OC(F)(F)F)cc1 [Example 50, N-(3-(9H-thioxanthen-9-ylidene)propyl)-4-(trifluoromethoxy)benzenesulfonamide] | ~15 | – | – |
| O=S(=O)(NCCCN1c2ccccc2CCc2ccc(Cl)cc21)c1cnc(Cl)c(Br)c1 [Example 63, 5-Bromo-6-chloro-N-(3-(3-chloro-10,11-dihydro-5H-dibenzo[b,f]azepin-5-yl)propyl)pyridine-3-sulfonamide] | – | – | % @ 20 μM (H1650 lung cancer cells [1]; 20 μM, taken from PCT WO2013/025882): 65% @ 20 |
| O=S(=O)(NCCCN1c2ccccc2CCc2cccnc21)c1ccc(OC(F)(F)F)cc1 [Example 100, N-(3-(5H-Benzo[b]pyrido[3,2-f]azepin-11(6H)-yl)propyl)-4-(trifluoromethoxy)benzenesulfonamide] | – | 20 | – |
| O=S(=O)(NCCCN1c2ccccc2CCc2cccnc21)c1ccc(Cl)cc1 [Example 101, N-(3-(5H-Benzo[b]pyrido[3,2-f]azepin-11(6H)-yl)propyl)-4-chlorobenzenesulfonamide] | – | 25 | – |
| O=S(=O)(NCCCN1c2ccccc2CCc2ncccc21)c1ccc(OC(F)(F)F)cc1 [Example 102, N-(3-(10,11-Dihydro-5H-benzo[b]pyrido[2,3-f]azepin-5-yl)propyl)-4-(trifluoromethoxy)benzenesulfonamide] | – | 30 | – |
| O=S(=O)(NCCCN1c2ccccc2CCc2ncccc21)c1ccc(Cl)cc1 [Example 103, 4-Chloro-N-(3-(10,11-dihydro-5H-benzo[b]pyrido[2,3-f]azepin-5-yl)propyl)benzenesulfonamide] | – | 30 | – |
| O=C(CCCN1CCC(O)(c2ccc(Cl)cc2)CC1)c1ccc(F)cc1 [Haloperidol] | – | – | fold increase in iTreg over control (DMSO) wells (CD4 naïve cells): did not induce a statistically significant increase |
